BindingDB's records for doi:10.1021/acs.jnatprod.7b00121 (Seoul National University, 2017)

Molecular target: T1, Sortase family protein (Staphylococcus aureus, UniProt Q9S446)
T1 sequence (Q9S446 whole entry): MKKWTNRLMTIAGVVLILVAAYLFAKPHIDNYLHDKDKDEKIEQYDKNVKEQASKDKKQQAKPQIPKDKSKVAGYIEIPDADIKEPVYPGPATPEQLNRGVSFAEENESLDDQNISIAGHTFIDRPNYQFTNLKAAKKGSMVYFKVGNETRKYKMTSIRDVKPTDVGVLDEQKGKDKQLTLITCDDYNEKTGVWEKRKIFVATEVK
Test: Inhibition of Staphylococcus aureus ATCC 6538p SortA expressed in Escherichia coli using Dabcyl-QALPETGEE-Edans as substrate after 1 hr by fluorescence spectrophotometric method

## O=C(O)c1cc[c]([Hg][OH])cc1
  IC50: 25 µM
